Patent US20250368633A1, “AZEPINE FUSED RING COMPOUND AS RIPK1 INHIBITOR AND USE THEREOF” (ARTIVILA BIOPHARMA, priority 2022, published 2025)

Experiments:
[1] = target: T1, RIPK1 kinase (Homo sapiens, UniProt Q13546); assay: In vitro RIPK1 kinase activity IC50 assay (ADP-Glo); assay type: biochemical; conditions: ATP 10 μM; MBP substrate 100 μg/mL; 8 concentration points; read-out: IC50 range of compounds for RIPK1 kinase activity
T1 construct: purchased Promega VA7593
T1 sequence (Q13546 1-671): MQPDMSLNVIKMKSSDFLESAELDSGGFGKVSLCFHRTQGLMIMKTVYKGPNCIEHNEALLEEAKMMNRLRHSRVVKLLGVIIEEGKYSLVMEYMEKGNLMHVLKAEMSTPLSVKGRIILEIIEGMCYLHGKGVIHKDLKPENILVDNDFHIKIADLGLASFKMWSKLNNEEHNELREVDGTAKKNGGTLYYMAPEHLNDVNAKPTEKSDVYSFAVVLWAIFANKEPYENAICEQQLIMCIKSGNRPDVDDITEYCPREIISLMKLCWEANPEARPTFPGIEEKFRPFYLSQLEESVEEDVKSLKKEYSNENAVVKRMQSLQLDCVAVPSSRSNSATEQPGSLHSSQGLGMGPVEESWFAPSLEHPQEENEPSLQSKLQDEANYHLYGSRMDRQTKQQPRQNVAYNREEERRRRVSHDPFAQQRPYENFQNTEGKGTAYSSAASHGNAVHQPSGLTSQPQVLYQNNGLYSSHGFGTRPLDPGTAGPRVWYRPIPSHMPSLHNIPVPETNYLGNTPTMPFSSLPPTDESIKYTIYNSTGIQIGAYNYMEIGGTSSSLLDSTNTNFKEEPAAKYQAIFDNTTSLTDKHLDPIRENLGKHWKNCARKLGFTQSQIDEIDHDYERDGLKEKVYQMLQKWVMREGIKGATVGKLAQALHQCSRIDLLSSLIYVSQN
Procedure: RIPK1 kinase activity was assayed using the ADP-Glo assay and RIPK1 kinase reaction system (Promega, catalog number: VA7593). The RIPK1 kinase activity assay was performed according to the Promega kit manual.
The experimental method was briefly described as below. The concentration of RIPK1 kinase in the RIPK1 kinase reaction system was determined by kinase titration and S/B10. The compound was diluted with 1× kinase buffer D (1% DMSO), 1 μL of 1 mM compound DMSO stock solution was added to 19 μL 1× kinase buffer D, and the compound was serially diluted with 1× kinase buffer D at a ratio of 1:5, for a total of 8 concentration points, and a control with the same DMSO volume was set. RIPK1 kinase was diluted with 1× kinase buffer D. 2.5×ATP/substrate was diluted with 1× kinase buffer D. The final concentration of ATP in the kinase reaction system was 10 μM. The final concentration of MBP substrate was 100 μg/mL. 1 μL of diluted compound and 2 μL of diluted RIPK1 kinase were mixed, incubated at room temperature for 15 minutes, 2 μL of 2.5×ATP/substrate was added, mixed, and incubated at room temperature for 1 hour. 5 μL ADP-Glo reagent was added to each well and incubated at room temperature for 1 hour. 10 μL ADP detection reagent was added to each well and incubated at room temperature for another 0.5-1 hour. The chemiluminescent signal was read with a microplate reader and the kinase activity inhibition rate was calculated. IC50 was obtained by fitting the nonlinear regression curve log [inhibitor] vs. response-variable slope (four parameters) in GraphPad Prism.

[2] = system: U937 cells; assay: Inhibition rate of compound (1 μM) on necroptosis of U937 cells (TSZ-induced, CellTiter-Glo); assay type: cell-based; conditions: TSZ (hTNF-α, SM-164, Z-VAD-FMK) 20 hours
Summary of the method: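 U937 cells were pretreated 15 min with compound, then necroptosis was triggered with TSZ (Z-VAD-FMK, hTNF-α, SM-164) for 20 h at 37° C. Viability was read as ATP by CellTiter-Glo luminescence, and inhibition (%) was taken relative to no-TSZ and TSZ-only wells.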

[3] = system: U937 cells; assay: EC50 of necroptosis inhibition in U937 cells (TSZ-induced, CellTiter-Glo); assay type: cell-based; conditions: Homo sapiens, U-937; TSZ (hTNF-α, SM-164, Z-VAD-FMK) 20 hours; 10 concentration points; read-out: EC50 intervals of necroptosis inhibition in U937 cells
Summary of the method: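 U937 cells pretreated 15 min with compound (10-point, 1:3 series), then necroptosis induced by TSZ (hTNF-α, SM-164, Z-VAD-FMK) for 20 h at 37 °C. Viability measured as ATP by CellTiter-Glo luminescence; inhibition normalised to untreated and TSZ-only wells, EC50 from four-parameter fit.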

[4] = target: T1, RIPK1 kinase; assay: In vitro RIPK1 kinase activity assay (ADP-Glo), inhibition by compounds at 1 μM; assay type: biochemical; conditions: compound 1 μM; ATP 10 μM; MBP substrate 100 μg/mL; read-out: RIPK1 kinase activity inhibition rate range
Summary of the method: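 Compound and RIPK1 were preincubated 15 min at room temperature, then reacted 1 h with 10 μM ATP and 100 μg/mL MBP substrate in kinase buffer D. ADP formed was measured by ADP-Glo luminescence and converted to percent inhibition of kinase activity.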

Compound: C[C@@H](NC(=O)C(=O)N[C@H]1COc2ccc(C#CCCO)cc2N(C)C1=O)c1ccccc1 [Example 125, N^1-((S)-7-(4-hydroxybut-1-yn-1-yl)-5-methyl-4-oxo-2,3,4,5-tetrahydrobenzo[b][1,4]oxazepin-3-yl)-N^2-((R)-1-phenylethyl)oxalamide]
- IC50 [1]: < 0.1 µM
- Inhibition rate range of compounds (1 μM) on U937 cell necroptosis [2]: A (A: ≥90%)
- EC50 [3]: < 0.1 µM

Compound: C[C@H](Cc1ccccc1)NC(=O)C(=O)N[C@H]1COc2ccc(C#CCCO)cc2N(C)C1=O [Example 153, N^1-((S)-7-(4-hydroxybut-1-yn-1-yl)-5-methyl-4-oxo-2,3,4,5-tetrahydrobenzo[b][1,4]oxazepin-3-yl)-N^2-((R)-1-phenylpropan-2-yl)oxalamide]
- inhibition at 1 µM [4]: 50 to 74%
- Inhibition rate range of compounds (1 μM) on U937 cell necroptosis [2]: A (A: ≥90%)
- EC50 [3]: 0.1 to 0.5 µM

Compound: CN1C(=O)[C@@H](NC(=O)C(=O)NC(C)(C)c2ccccc2)COc2ccc(C#CCN3CCOCC3)cc21 [Example 160, (S)—N^1-(5-methyl-7-(3-morpholinoprop-1-yn-1-yl)-4-oxo-2,3,4,5-tetrahydrobenzo[b][1,4]oxazepin-3-yl)-N^2-(2-phenylpropan-2-yl)oxalamide]
- inhibition at 1 µM [4]: ≥ 75%
- Inhibition rate range of compounds (1 μM) on U937 cell necroptosis [2]: A (A: ≥90%)
- EC50 [3]: < 0.1 µM

Compound: C[C@@H](NC(=O)C(=O)N[C@H]1COc2ccc(C#CC[N+]3([O-])CCOCC3)cc2N(C)C1=O)c1ccccc1 [Example 161, 4-(3-((S)-5-methyl-4-oxo-3-(2-oxo-2-(((R)-1-phenylethyl)amino)acetamido)-2,3,4,5-tetrahydrobenzo[b][1,4]oxazepin-7-yl)prop-2-yn-1-yl) morpholine 4-oxide]
- inhibition at 1 µM [4]: 50 to 74%
- Inhibition rate range of compounds (1 μM) on U937 cell necroptosis [2]: A (A: ≥90%)
- EC50 [3]: < 0.1 µM

Compound: Cc1ncsc1-c1ccc(CNC(=O)[C@@H]2C[C@@H](O)CN2C(=O)[C@@H](NC(=O)COCCOCCN2CCN(CC#Cc3ccc4c(c3)N(C)C(=O)[C@@H](NC(=O)C(=O)N[C@H](C)c3ccccc3)CO4)CC2)C(C)(C)C)cc1 [Example 162, N^1-((S)-7-(3-(4-(2-(2-(2-(((S)-1-((2S,4R)-4-hydroxy-2-((4-(4-methylthiazol-5-yl)benzyl)carbamoyl)pyrrolidin-1-yl)-3,3-dimethyl-1-oxobutan-2-yl)amino)-2-oxoethoxy)ethoxy)ethyl)piperazin-1-yl)prop-1-yn-1-yl)-5-methyl-4-oxo-2,3,4,5-tetrahydrobenzo[b][1,4]oxazepin-3-yl)-N^2-((R)-1-phenylethyl)oxalamide]
- inhibition at 1 µM [4]: ≥ 75%
- Inhibition rate range of compounds (1 μM) on U937 cell necroptosis [2]: A (A: ≥90%)
- EC50 [3]: 0.1 to 0.5 µM

Compound: Cc1ncsc1-c1ccc(CNC(=O)[C@@H]2C[C@@H](O)CN2C(=O)[C@@H](NC(=O)CCOCCOCCOCCN2CCN(CC#Cc3ccc4c(c3)N(C)C(=O)[C@@H](NC(=O)C(=O)N[C@H](C)c3ccccc3)CO4)CC2)C(C)(C)C)cc1 [Example 163, N^1-((S)-7-(3-(4-((S)-14-((2S,4R)-4-hydroxy-2-((4-(4-methylthiazol-5-yl)benzyl)carbamoyl)pyrrolidine-1-carbonyl)-15,15-dimethyl-12-oxo-3,6,9-trioxa-13-azahexadecyl)piperazin-1-yl)prop-1-yn-1-yl)-5-methyl-4-oxo-2,3,4,5-tetrahydrobenzo[b][1,4]oxazepin-3-yl)-N^2-((R)-1-phenylethyl)oxalamide]
- inhibition at 1 µM [4]: ≥ 75%
- Inhibition rate range of compounds (1 μM) on U937 cell necroptosis [2]: A (A: ≥90%)
- EC50 [3]: < 0.1 µM

Compound: C[C@@H](NC(=O)C(=O)N[C@H]1CN(C)c2ccc(C#CCN3CCOCC3)cc2N(C)C1=O)c1ccccc1 [Example 166, N^1-((S)-1,5-dimethyl-8-(3-morpholinoprop-1-yn-1-yl)-2-oxo-2,3,4,5-tetrahydro-1H-benzo[b][1,4]diazepin-3-yl)-N^2-((R)-1-phenylethyl)oxalamide]
- inhibition at 1 µM [4]: 25 to 49%
- Inhibition rate range of compounds (1 μM) on U937 cell necroptosis [2]: A (A: ≥90%)
- EC50 [3]: < 0.1 µM
